Source: PMC10264579 (Frontiers in Pharmacology, 2023)

Assay: In vitro skin permeation study in Franz diffusion cells
Format: in vitro ADME, human
Conditions: all formulations
Text: The steady-state flux was estimated from the slope of the linear portion of the plot of cumulative mass in the acceptor phase over time.

lag time, KET: below 0
SMILES: CC(C(=O)O)c1cccc(C(=O)c2ccccc2)c1 (stereo not shown) [KET, ketoprofen]
